Measurements: PubChem BioAssay AID1963977 (Molecular Pharmacology Branch, DTP, NCI, 2024)
One block for each compound: values may come before it.

Tested on: 624824-186-R-J3-PDC multicell spheroids, viability
Test: Anticancer human tumor 624824-186-R-J3-PDC patient-derived colon adenocarcinoma cell line growth inhibition [PI3K]
Conditions: for IC50: curve of first compound; for viability, T/C: stronger effect = lower value
From the text: Combinatorial screen of targeted agents with the PI3K inhibitors inavolisib, alpelisib, duvelisib, and copanlisib in multi-cell type tumor spheroids
A high-throughput screen of multi-cell type tumor spheroids was designed to identify active combinations of targeted small molecules and PI3K pathway inhibitors. Complex spheroids include a stromal component modeled by human endothelial cells (HUVEC) and fibroblasts modeled by human mesenchymal stem cells (MSCs). The concentration ranges selected for each drug and investigational agent were based upon clinically achievable concentrations if the clinical Cmax of the agent was known.
Compounds. The drugs and investigational agents: inavolisib (NSC800729), alpelisib (NSC765974), duvelisib (NSC772469), copanlisib (NSC816437), ipatasertib (NSC767898), afuresertib (NSC778305), talazoparib (NSC767125), sapanisertib (NSC764658), selumetinib (NSC741078), tovorafenib (DAY101, NSC766906), vemurafenib (NSC761431), ravoxertinib (NSC781343), sotorasib (NSC818433), MRTX1133 (NSC 836407), abemaciclib (NSC 768073), palbociclib (NSC758247), venetoclax (NSC 766270), SY5609 (NSC837396), enzalutamide (NSC755605), and darolutamide (NSC825331), were obtained from the National Cancer Institute (NCI) Developmental Therapeutics Program Chemical Repository. The FDA-approved anticancer drug set is available from the NCI Developmental Therapeutics Program. […] The stock solutions were prepared in dimethyl sulfoxide (DMSO, Sigma-Aldrich, St. Louis, MO, cat. D2650) at 800-fold the tested concentration and stored at -70 degrees C prior to their use. All drugs and investigational agents were tested over a range starting from a high concentration at or near the clinical Cmax and decreasing in half-log increments. If the clinical Cmax for an agent had not been determined, the highest concentration tested was 10 microM.
Cell Culture. All cells were maintained in an incubator at 37 degrees C and 5% CO2 with 95% humidity. The PDC lines were cultured according to standard operating procedures established by the NCI PDMR (https://pdmr.cancer.gov/sops/default.htm). All PDCs were thawed and cultured in Matrigel-coated flasks prepared with a working solution of 1X Ham's F-12 nutrient mix, without supplementation (Invitrogen, Waltham, MA, cat. 11765054), 100 U/mL penicillin-streptomycin (Invitrogen, cat. 15140122), and 2.5% Matrigel (Corning Inc., Corning, NY, cat. 354248) for the first three passages. The 354836-022-R-J1-PDC, 475296-252-R-J1-PDC, and 997726-040-R-J2-PDC lines were cultured in 6A media, which includes advanced DMEM/F-12 (Thermo Fisher Scientific, cat. 12634028), 10 mM HEPES (Thermo Fisher Scientific, cat. 15630080), 1X GlutaMAX supplement (Thermo Fisher Scientific, cat. 35050061), 0.1 mg/mL primocin (InvivoGen, San Diego, CA, cat. ant-pm-2), 10% defined fetal bovine serum, heat inactivated (HyClone Laboratories Inc., Logan, UT, cat. SH30070.03HI), 50% L-WRN conditioned media (ATCC, cat. CRL-3276), 1.25 mM N-Acetyl-L-cysteine (Sigma-Aldrich, cat. A9165), 10 mM nicotinamide (Sigma-Aldrich, cat. N0636), 1X B-27 supplement (Thermo Fisher Scientific, cat. 17504044), 1X N-2 supplement (Thermo Fisher Scientific, cat. 17502048), and 10 microM Y-27632 dihydrochloride (Tocris Bioscience, Bristol, United Kingdom, cat. 1254). The 624824-186-R-J2-PDC line was cultured in 6C/Colon 1B media, which includes all 6A media components plus 50 ng/mL human EGF recombinant protein (Thermo Fisher Scientific, cat. PHG0311). […]

[1] = second compound 0.00316 µM, first compound 0.0316 µM
[2] = second compound 0.00316 µM, first compound 0.1 µM
[3] = second compound 0.00316 µM, first compound 0.316 µM
[4] = second compound 0.00316 µM, first compound 1 µM
[5] = second compound 0.00316 µM, first compound 3.16 µM
[6] = second compound 0.00316 µM, first compound 10 µM
[7] = second compound 0.01 µM, first compound 0.0316 µM
[8] = second compound 0.01 µM, first compound 0.1 µM
[9] = second compound 0.01 µM, first compound 0.316 µM
[10] = second compound 0.01 µM, first compound 1 µM
[11] = second compound 0.01 µM, first compound 3.16 µM
[12] = second compound 0.01 µM, first compound 10 µM
[13] = second compound 0.0316 µM, first compound 0.0316 µM
[14] = second compound 0.0316 µM, first compound 0.1 µM
[15] = second compound 0.0316 µM, first compound 0.316 µM
[16] = second compound 0.0316 µM, first compound 1 µM
[17] = second compound 0.0316 µM, first compound 3.16 µM
[18] = second compound 0.0316 µM, first compound 10 µM
[19] = second compound 0.1 µM, first compound 0.0316 µM
[20] = second compound 0.1 µM, first compound 0.1 µM
[21] = second compound 0.1 µM, first compound 0.316 µM
[22] = second compound 0.1 µM, first compound 1 µM
[23] = second compound 0.1 µM, first compound 3.16 µM
[24] = second compound 0.1 µM, first compound 10 µM
[25] = second compound 0.316 µM, first compound 0.0316 µM
[26] = second compound 0.316 µM, first compound 0.1 µM
[27] = second compound 0.316 µM, first compound 0.316 µM
[28] = second compound 0.316 µM, first compound 1 µM
[29] = second compound 0.316 µM, first compound 3.16 µM
[30] = second compound 0.316 µM, first compound 10 µM
[31] = second compound 1 µM, first compound 0.0316 µM
[32] = second compound 1 µM, first compound 0.1 µM
[33] = second compound 1 µM, first compound 0.316 µM
[34] = second compound 1 µM, first compound 1 µM
[35] = second compound 1 µM, first compound 3.16 µM
[36] = second compound 1 µM, first compound 10 µM
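Note: spheroids exposed to agents for seven days before luminescence read.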
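Throughout, for viability, T/C: luminescent signal used as a stand-in for spheroid viability; percent viability relative to DMSO vehicle control wells taken as 100%.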

IC50 (second compound 0.00316 µM): > 10 µM
IC50 (second compound 0.01 µM): > 10 µM
IC50 (second compound 0.0316 µM): > 10 µM
IC50 (second compound 0.1 µM): > 10 µM
IC50 (second compound 0.316 µM): > 10 µM
IC50 (second compound 1 µM): > 10 µM
Structure (SMILES): C=CC(=O)N1CCN(c2nc(=O)n(-c3c(C)ccnc3C(C)C)c3nc(-c4c(O)cccc4F)c(F)cc23)C(C)C1 (centres undefined) + CC(Nc1ccc2c(c1)OCCn1cc(N3C(=O)OCC3C(F)F)nc1-2)C(N)=O
viability, T/C [1]: 103%
viability, T/C [2]: 94.4%
viability, T/C [3]: 98.8%
viability, T/C [4]: 88.2%
viability, T/C [5]: 99.7%
viability, T/C [6]: 105%
viability, T/C [7]: 105%
viability, T/C [8]: 99.2%
viability, T/C [9]: 96.9%
viability, T/C [10]: 94%
viability, T/C [11]: 99.6%
viability, T/C [12]: 106%
viability, T/C [13]: 97%
viability, T/C [14]: 98.5%
viability, T/C [15]: 102%
viability, T/C [16]: 96%
viability, T/C [17]: 113%
viability, T/C [18]: 99.6%
viability, T/C [19]: 91.7%
viability, T/C [20]: 97.2%
viability, T/C [21]: 107%
viability, T/C [22]: 102%
viability, T/C [23]: 107%
viability, T/C [24]: 104%
viability, T/C [25]: 90.1%
viability, T/C [26]: 96.8%
viability, T/C [27]: 94.5%
viability, T/C [28]: 94%
viability, T/C [29]: 108%
viability, T/C [30]: 98.4%
viability, T/C [31]: 95.1%
viability, T/C [32]: 83.7%
viability, T/C [33]: 87.4%
viability, T/C [34]: 87%
viability, T/C [35]: 87.4%
viability, T/C [36]: 91.3%

IC50 (second compound 0.00316 µM): > 10 µM
IC50 (second compound 0.01 µM): > 10 µM
IC50 (second compound 0.0316 µM): > 10 µM
IC50 (second compound 0.1 µM): > 10 µM
IC50 (second compound 0.316 µM): > 10 µM
IC50 (second compound 1 µM): > 10 µM
Structure (SMILES): CC(Cn1ccc(-c2ccc(C#N)c(Cl)c2)n1)NC(=O)c1cc(C(C)O)[nH]n1 (centres undefined) + CC(Nc1ccc2c(c1)OCCn1cc(N3C(=O)OCC3C(F)F)nc1-2)C(N)=O
viability, T/C [1]: 98.3%
viability, T/C [2]: 98.6%
viability, T/C [3]: 94.7%
viability, T/C [4]: 92.7%
viability, T/C [5]: 94.6%
viability, T/C [6]: 103%
viability, T/C [7]: 93%
viability, T/C [8]: 100%
viability, T/C [9]: 115%
viability, T/C [10]: 101%
viability, T/C [11]: 103%
viability, T/C [12]: 95.5%
viability, T/C [13]: 110%
viability, T/C [14]: 96.4%
viability, T/C [15]: 97.4%
viability, T/C [16]: 107%
viability, T/C [17]: 112%
viability, T/C [18]: 99%
viability, T/C [19]: 101%
viability, T/C [20]: 97.5%
viability, T/C [21]: 93.3%
viability, T/C [22]: 102%
viability, T/C [23]: 102%
viability, T/C [24]: 91%
viability, T/C [25]: 94.2%
viability, T/C [26]: 96%
viability, T/C [27]: 101%
viability, T/C [28]: 91.4%
viability, T/C [29]: 91.5%
viability, T/C [30]: 77.8%
viability, T/C [31]: 87.6%
viability, T/C [32]: 88.2%
viability, T/C [33]: 83.8%
viability, T/C [34]: 88.7%
viability, T/C [35]: 81.9%
viability, T/C [36]: 79.1%
